Reference: patent US20160108049A1 (TAKEDA Gmbh, priority 2011, published 2016)

Columns and labels:
PDE4B1 = target: T1, PDE4B1 (Homo sapiens, UniProt Q07343); experiment: Inhibition of PDE4 activity (PDE4B1, SPA assay); type: biochemical; details: recombinant PDE4B1, 0.5 μM cAMP; read-out: PDE4B1 Inhibitory values measured as -logIC50 (converted)
T1 construct: made in house; host or cells: SF21 insect cells (baculovirus; virus made in SF9 cells, pCR-Bac vector)
Method in brief: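 Baculovirus-expressed enzyme from SF21 cell 1000×g supernatant; substrate 0.5 μM [3H]cAMP in 20 mM Tris pH 7.4, 5 mM Mg2+, 0.1 mg/ml BSA, 10-20% conversion. 5 min preincubation at 37 °C, 15 min reaction, stopped by SPA beads with IBMX; IC50 by non-linear regression.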

human PDE5 = target: T2, human PDE5 (Homo sapiens, UniProt O76074); experiment: Inhibition of PDE5 activity (platelet lysate, SPA assay); type: biochemical; details: 0.5 μM cGMP, read-out: PDE5 Inhibitory values measured as -logIC50 (converted)
T2 construct: from tissue; host or cells: human platelets from fresh donor blood (platelet lysate)
Method in brief: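 Human platelet lysate (10,000 g supernatant) served as PDE5 source, with 1 μM motapizone and 10 nM PDE2 inhibitor added, in Tris pH 7.4, 5 mM Mg2+, BSA. Substrate 0.5 μM [3H]cGMP, 10–20% conversion; 5 min preincubation then 15 min at 37 °C, stopped by SPA beads with IBMX. IC50 by non-linear regression.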

T1 sequence (Q07343 whole entry): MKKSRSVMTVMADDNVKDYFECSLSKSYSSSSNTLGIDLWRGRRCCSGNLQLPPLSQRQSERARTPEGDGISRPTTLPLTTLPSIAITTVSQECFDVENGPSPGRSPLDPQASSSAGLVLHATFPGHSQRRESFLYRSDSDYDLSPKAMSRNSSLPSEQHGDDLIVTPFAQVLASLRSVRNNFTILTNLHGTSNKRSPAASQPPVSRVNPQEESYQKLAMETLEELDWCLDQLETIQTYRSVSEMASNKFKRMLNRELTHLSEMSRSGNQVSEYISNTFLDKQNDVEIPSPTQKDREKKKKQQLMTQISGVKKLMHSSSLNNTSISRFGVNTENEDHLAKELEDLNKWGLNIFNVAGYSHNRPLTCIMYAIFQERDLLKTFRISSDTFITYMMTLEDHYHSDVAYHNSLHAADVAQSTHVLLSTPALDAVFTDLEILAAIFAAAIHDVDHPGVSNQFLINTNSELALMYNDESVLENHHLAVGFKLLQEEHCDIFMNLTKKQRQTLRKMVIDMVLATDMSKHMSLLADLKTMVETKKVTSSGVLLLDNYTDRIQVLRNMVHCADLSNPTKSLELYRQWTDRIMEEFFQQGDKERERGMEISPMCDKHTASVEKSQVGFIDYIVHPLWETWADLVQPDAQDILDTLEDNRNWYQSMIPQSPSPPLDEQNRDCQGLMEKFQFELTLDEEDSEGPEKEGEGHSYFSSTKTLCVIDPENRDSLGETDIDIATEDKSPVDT

| Compound | IC50 (PDE4B1) [nM] | IC50 (human PDE5) [nM] |
| --- | --- | --- |
| COc1ccc(C2=NN(C3CCN(C(=O)[C@@H](Cc4ccc(C(N)=O)cc4)NC(=O)c4c(C)[nH]c5c(-c6c(OCC7CC7)ccc7c6OCO7)ncnc45)CC3)C(=O)[C@@H]3CCCC[C@H]23)cc1OC [Example 11, N-[(2R)-3-(4-carbamoylphenyl)-1-{4-[(4aS,8aR)-4-(3,4-dimethoxyphenyl)-1-oxo-4a,5,6,7,8,8a-hexahydrophthalazin-2(1H)-yl]piperidin-1-yl}-1-oxopropan-2-yl]-4-[5-(cyclopropylmethoxy)-1,3-benzodioxol-4-yl]-6-methyl-5H-pyrrolo[3,2-d]pyrimidine-7-carboxamide] | < 1 | 1 to 10 |
| COc1cc(-c2ncnc3c(C(=O)N[C@H](Cc4ccccc4)C(=O)N4CCC(N5N=C(c6ccc(OC)c(OC)c6)[C@H]6CCCC[C@H]6C5=O)CC4)c[nH]c23)c(OCC2CC2)cc1F [Example 24, 4-[2-(cyclopropylmethoxy)-4-fluoro-5-methoxyphenyl]-N-[(2R)-1-{4-[(4aS,8aR)-4-(3,4-dimethoxyphenyl)-1-oxo-4a,5,6,7,8,8a-hexahydrophthalazin-2(1H)-yl]piperidin-1-yl}-1-oxo-3-phenylpropan-2-yl]-5H-pyrrolo[3,2-d]pyrimidine-7-carboxamide] | 1 to 10 | 1 to 10 |
| COc1cc(OCC2CC2)c(-c2ncnc3c(C(=O)N[C@@H](C(=O)N4CCC(N5N=C(c6ccc(OC)c(OC)c6)[C@H]6CCCC[C@H]6C5=O)CC4)[C@H](C)c4ccccc4)c(C)[nH]c23)cc1F [Example 37, 4-[2-(cyclopropylmethoxy)-5-fluoro-4-methoxyphenyl]-N-[(2R,3R)-1-{4-[(4aS,8aR)-4-(3,4-dimethoxyphenyl)-1-oxo-4a,5,6,7,8,8a-hexahydrophthalazin-2(1H)-yl]piperidin-1-yl}-1-oxo-3-phenylbutan-2-yl]-6-methyl-5H-pyrrolo[3,2-d]pyrimidine-7-carboxamide] | 1 to 10 | 1 to 10 |
| COc1cc(OCC2CC2)c(-c2ncnc3c(C(=O)N[C@H](Cc4ccccc4)C(=O)N4CCC(N5N=C(c6ccc(OC)c(OC)c6)[C@H]6CCCC[C@H]6C5=O)CC4)c(C)[nH]c23)cc1F [Example 22, 4-[2-(cyclopropylmethoxy)-5-fluoro-4-methoxyphenyl]-N-[(2R)-1-{4-[(4aS,8aR)-4-(3,4-dimethoxyphenyl)-1-oxo-4a,5,6,7,8,8a-hexahydrophthalazin-2(1H)-yl]piperidin-1-yl}-1-oxo-3-phenylpropan-2-yl]-6-methyl-5H-pyrrolo[3,2-d]pyrimidine-7-carboxamide] | 1 to 10 | 1 to 10 |
| COc1ccc(C2=NN(C3CCN(C(=O)[C@H](CCC(=O)NC(C)C)NC(=O)c4c[nH]c5c(-c6c(OCC7CC7)ccc7c6OCO7)ncnc45)CC3)C(=O)[C@@H]3CCCC[C@H]23)cc1OC [Example 106, 4-[5-(cyclopropylmethoxy)-1,3-benzodioxol-4-yl]-N-[(2S)-1-{4-[(4aS,8aR)-4-(3,4-dimethoxyphenyl)-1-oxo-4a,5,6,7,8,8a-hexahydrophthalazin-2(1H)-yl]piperidin-1-yl}-1,5-dioxo-5-(propan-2-ylamino)pentan-2-yl]-5H-pyrrolo[3,2-d]pyrimidine-7-carboxamide] | 1 to 10 | 1 to 10 |
| COc1ccc(C2=NN(C3CCN(C(=O)[C@@H](Cc4ccc(-c5ccccc5)cc4)NC(=O)c4c[nH]c5c(-c6c(OCC7CC7)ccc7c6OCO7)ncnc45)CC3)C(=O)[C@@H]3CCCC[C@H]23)cc1OC [Example 13, N-[(2R)-3-(biphenyl-4-yl)-1-{4-[(4aS,8aR)-4-(3,4-dimethoxyphenyl)-1-oxo-4a,5,6,7,8,8a-hexahydrophthalazin-2(1H)-yl]piperidin-1-yl}-1-oxopropan-2-yl]-4-[5-(cyclopropylmethoxy)-1,3-benzodioxol-4-yl]-5H-pyrrolo[3,2-d]pyrimidine-7-carboxamide] | < 1 | 1 to 10 |
| COc1ccc(C2=NN(C3CCN(C(=O)[C@@H](Cc4ccccc4)NC(=O)c4c[nH]c5c(-c6c(OCC7CC7)ccc7c6OCO7)ncnc45)CC3)C(=O)C(C)(C)C2)c2c1OC(C)(C)C2 [Example 115] | < 1 | 1 to 10 |
| COc1ccc(C2=NN(C3CCN(C(=O)[C@H](CCC(=O)OCc4ccccc4)NC(=O)c4c[nH]c5c(-c6c(OCC7CC7)ccc7c6OCO7)ncnc45)CC3)C(=O)[C@@H]3CCCC[C@H]23)cc1OC [Example 104, Benzyl (4S)-4-[({4-[5-(cyclopropylmethoxy)-1,3-benzodioxol-4-yl]-5H-pyrrolo[3,2-d]pyrimidin-7-yl}carbonyl)amino]-5-{4-[(4aS,8aR)-4-(3,4-dimethoxyphenyl)-1-oxo-4a,5,6,7,8,8a-hexahydrophthalazin-2(1H)-yl]piperidin-1-yl}-5-oxopentanoate] | 1 to 10 | 1 to 10 |
| COc1ccc(C2=NN(C3CCN(C(=O)[C@@H](Cc4ccccc4)NC(=O)c4c[nH]c5c(-c6c(OCC7CC7)ccc7c6OCO7)ncnc45)CC3)C(=O)C3(CCCC3)C2)cc1OC [Example 123, 4-[5-(cyclopropylmethoxy)-1,3-benzodioxol-4-yl]-N-[(2R)-1-{4-[9-(3,4-dimethoxyphenyl)-6-oxo-7,8-diazaspiro[4.5]dec-8-en-7-yl]piperidin-1-yl}-1-oxo-3-phenylpropan-2-yl]-5H-pyrrolo[3,2-d]pyrimidine-7-carboxamide] | 1 to 10 | 1 to 10 |
| COc1ccc(C2=NN(C3CCN(C(=O)[C@H](NC(=O)c4c[nH]c5c(-c6c(OCC7CC7)ccc7c6OCO7)ncnc45)C4CCCCC4)CC3)C(=O)[C@@H]3CCCC[C@H]23)cc1OC [Example 72, N-[(1R)-1-cyclohexyl-2-{4-[(4aS,8aR)-4-(3,4-dimethoxyphenyl)-1-oxo-4a,5,6,7,8,8a-hexahydrophthalazin-2(1H)-yl]piperidin-1-yl}-2-oxoethyl]-4-[5-(cyclopropylmethoxy)-1,3-benzodioxol-4-yl]-5H-pyrrolo[3,2-d]pyrimidine-7-carboxamide] | < 1 | 1 to 10 |
| COc1ccc(C2=NN(C3CCN(C(=O)[C@@H](CCc4ccccc4)NC(=O)c4c[nH]c5c(-c6c(OCC7CC7)ccc7c6OCO7)ncnc45)CC3)C(=O)[C@@H]3CCCC[C@H]23)cc1OC [Example 65, 4-[5-(cyclopropylmethoxy)-1,3-benzodioxol-4-yl]-N-[(2R)-1-{4-[(4aS,8aR)-4-(3,4-dimethoxyphenyl)-1-oxo-4a,5,6,7,8,8a-hexahydrophthalazin-2(1H)-yl]piperidin-1-yl}-1-oxo-4-phenylbutan-2-yl]-5H-pyrrolo[3,2-d]pyrimidine-7-carboxamide] | < 1 | < 1 |
| COc1ccc(C2=NN(C3CCN(C(=O)[C@H](Cc4cccs4)NC(=O)c4c[nH]c5c(-c6c(OCC7CC7)ccc7c6OCO7)ncnc45)CC3)C(=O)[C@@H]3CCCC[C@H]23)cc1OC [Example 75, 4-[5-(cyclopropylmethoxy)-1,3-benzodioxol-4-yl]-N-[(2S)-1-{4-[(4aS,8aR)-4-(3,4-dimethoxyphenyl)-1-oxo-4a,5,6,7,8,8a-hexahydrophthalazin-2(1H)-yl]piperidin-1-yl}-1-oxo-3-(thiophen-2-yl)propan-2-yl]-5H-pyrrolo[3,2-d]pyrimidine-7-carboxamide] | < 1 | 1 to 10 |
| COc1cc(OCC2CC2)c(-c2ncnc3c(C(=O)N[C@H](Cc4ccccc4)C(=O)N4CCC(N5N=C(c6ccc(OC)c(OC)c6)CC(C)(C)C5=O)CC4)c(C)[nH]c23)cc1F [Example 69, 4-[2-(cyclopropylmethoxy)-5-fluoro-4-methoxyphenyl]-N-[(2R)-1-{4-[3-(3,4-dimethoxyphenyl)-5,5-dimethyl-6-oxo-5,6-dihydropyridazin-1(4H)-yl]piperidin-1-yl}-1-oxo-3-phenylpropan-2-yl]-6-methyl-5H-pyrrolo[3,2-d]pyrimidine-7-carboxamide] | 1 to 10 | 1 to 10 |
| COc1ccc(C2=NN(C3CCN(C(=O)[C@@H](Cc4ccccc4)NC(=O)c4c[nH]c5c(-c6c(OCC7CC7)ccc7c6OCO7)ncnc45)CC3)C(=O)[C@@H]3CCC[C@H]23)cc1OC [Example 55, 4-[5-(cyclopropylmethoxy)-1,3-benzodioxol-4-yl]-N-[(2R)-1-{4-[(4aS,7aR)-4-(3,4-dimethoxyphenyl)-1-oxo-1,4a,5,6,7,7a-hexahydro-2H-cyclopenta[d]pyridazin-2-yl]piperidin-1-yl}-1-oxo-3-phenylpropan-2-yl]-5H-pyrrolo[3,2-d]pyrimidine-7-carboxamide] | 1 to 10 | 1 to 10 |
| COc1ccc(C2=NN(C3CCN(C(=O)C(Cc4c[nH]c5ccccc45)NC(=O)c4c[nH]c5c(-c6c(OCC7CC7)ccc7c6OCO7)ncnc45)CC3)C(=O)C3CCCCC23)cc1OC [Example 92, 4-[5-(cyclopropylmethoxy)-1,3-benzodioxol-4-yl]-N-[(2S)-1-{4-[(4aS,8aR)-4-(3,4-dimethoxyphenyl)-1-oxo-4^a,5,6,7,8,8^a-hexahydrophthalazin-2(1H)-yl]piperidin-1-yl}-3-(1H-indol-3-yl)-1-oxopropan-2-yl]-5H-pyrrolo[3,2-d]pyrimidine-7-carboxamide] | < 1 | < 1 |
